Values quoted from earlier work as cited in patent US9066860B2, “Oil-in-water emulsified composition” (SHISEIDO COMPANY, LTD., priority 2009, dated 2015).

Conditions: background art statement

Maximum (peak) absorption wavelength	Compound
~310 nm	CCCCC(CC)COC(=O)C=Cc1ccc(OC)cc1 (stereo not drawn) [2-ethylhexyl p-methoxycinnamate]
~290 nm	CCCCC(CC)COC(=O)c1ccc(N(C)C)cc1 (stereo not drawn) [2-ethylhexyl-p-dimethylaminobenzoate]
around 360 nm	COc1ccc(C(=O)CC(=O)c2ccc(C(C)(C)C)cc2)cc1 [4-tert-butyl-4′-methoxydibenzoylmethane]
